Laboratory results from PubChem BioAssay AID1259411 (Chemical Carcinogenesis Research Information System (CCRIS), 2018).
Active and inactive are the calls of the source. The rule behind the calls is not given here.

Test system: rodent carcinogenicity bioassays, tumor incidence
Test: CCRIS carcinogenicity studies
Method in brief: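 Archive of carcinogenicity, mutagenicity, tumor promotion and tumor inhibition results drawn from journals, NCI reports and other sources, expert-reviewed; covers 1985-2011 and is no longer updated.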

In the case of CCCCCCCCN(C)N=O, the carcinogen call (Species: HAMSTER, Strain/Sex: SYRIAN/FEMALE, Route: GAVAGE, Dose: 0, 7.4 MG/KG 1/WK FOR 40 WK (TOTAL DOSE: 0; 2.1 MMOL) (STUDY DURATION: LIFETIME), Dose: 0, 7.4 MG/KG 1/WK FOR 40 WK (TOTAL DOSE: 0; 2.1 MMOL) (STUDY DURATION: LIFETIME), Tumor Site: Type of Lesion: LIVER: HEPATOCELLULAR ADENOMA, LUNG: ALVEOLAR/BRONCHIAL ADENOMA, NASAL MUCOSA: ADENOMA, URINARY BLADDER: SARCOMA, UNDIFF, Tumor Site: Type of Lesion: LIVER: HEPATOCELLULAR ADENOMA, LUNG: ALVEOLAR/BRONCHIAL ADENOMA, NASAL MUCOSA: ADENOMA, URINARY BLADDER: SARCOMA, UNDIFF) is reported as “active; positive”, the carcinogen call (Species: HAMSTER, Strain/Sex: SYRIAN/MALE, Route: GAVAGE, Dose: 0, 7.4 MG/KG 1/WK FOR 40 WK (TOTAL DOSE: 0; 2.1 MMOL) (STUDY DURATION: LIFETIME), Dose: 0, 7.4 MG/KG 1/WK FOR 40 WK (TOTAL DOSE: 0; 2.1 MMOL) (STUDY DURATION: LIFETIME), Tumor Site: Type of Lesion: LIVER: HEPATOCELLULAR ADENOMA, CHOLANGIOMA, HEMANGIOSARCOMA, LUNG: ALVEOLAR/ BRONCHIAL ADENOMA, NASAL MUCOSA: ADENOMA, U, Tumor Site: Type of Lesion: LIVER: HEPATOCELLULAR ADENOMA, CHOLANGIOMA, HEMANGIOSARCOMA, LUNG: ALVEOLAR/ BRONCHIAL ADENOMA, NASAL MUCOSA: ADENOMA, U) is reported as “active; positive” and the carcinogen call (Species: RAT, Strain/Sex: F344/MALE, Route: GAVAGE, Dose: 0, 93 MG/ML IN CORN OIL 2/WK FOR 30 WK, STUDY DURATION: 50 WK, Dose: 0, 93 MG/ML IN CORN OIL 2/WK FOR 30 WK, STUDY DURATION: 50 WK, Tumor Site: Type of Lesion: LUNG: ADENOCARCINOMA, ADENOMA, NASAL CAVITY: CARCINOMA, LIVER: HEPATOCELLULAR TUMOR, BLADDER, Tumor Site: Type of Lesion: LUNG: ADENOCARCINOMA, ADENOMA, NASAL CAVITY: CARCINOMA, LIVER: HEPATOCELLULAR TUMOR, BLADDER) is reported as “active; positive”.

CCN=c1cc2oc3cc(NCC)c(C)cc3c(-c3ccccc3C(=O)OCC)c-2cc1C was tested, and the carcinogen call (Species: MOUSE, Strain/Sex: B6C3F1/FEMALE, Route: ORAL, Dose: 0, 500, 1000 PPM IN FEED FOR 103 WK (STUDY DURATION: 105 WK), Dose: 0, 500, 1000 PPM IN FEED FOR 103 WK (STUDY DURATION: 105 WK)) was “inactive; negative”, the carcinogen call (Species: MOUSE, Strain/Sex: B6C3F1/MALE, Route: ORAL, Dose: 0, 1000, 2000 PPM IN FEED FOR 103 WK (STUDY DURATION: 105 WK), Dose: 0, 1000, 2000 PPM IN FEED FOR 103 WK (STUDY DURATION: 105 WK)) was “inactive; negative” and the carcinogen call (Species: RAT, Strain/Sex: F344/FEMALE, Route: ORAL, Dose: 0, 120, 250 PPM IN FEED FOR 103 WK (STUDY DURATION: 105 WK), Dose: 0, 120, 250 PPM IN FEED FOR 103 WK (STUDY DURATION: 105 WK), Tumor Site: Type of Lesion: ADRENAL GLAND: PHEOCHROMOCYTOMA OR MALIGNANT PHEOCHROMOCYTOMA) was “equivocal”. For the same compound, the carcinogen call (Species: RAT, Strain/Sex: F344/MALE, Route: ORAL, Dose: 0, 120, 250 PPM IN FEED FOR 103 WK (STUDY DURATION: 105 WK), Dose: 0, 120, 250 PPM IN FEED FOR 103 WK (STUDY DURATION: 105 WK), Tumor Site: Type of Lesion: INTEGUMENTARY SYSTEM: KERATOACANTHOMA) was “equivocal”.

In the case of FC(F)OC(Cl)C(F)(F)F (configuration not stated), the carcinogen call (Species: MOUSE, Strain/Sex: SWISS/FEMALE, Route: INHALATION, Dose: 0, 0.1, 0.4% IN AIR 4 HR/D 5 D/WK FOR 78 WK (STUDY DURATION: 81 WK), Dose: 0, 0.1, 0.4% IN AIR 4 HR/D 5 D/WK FOR 78 WK (STUDY DURATION: 81 WK)) is reported as “inactive; negative” and the carcinogen call (Species: MOUSE, Strain/Sex: SWISS/MALE, Route: INHALATION, Dose: 0, 0.1, 0.4% IN AIR 4 HR/D 5 D/WK FOR 78 WK (STUDY DURATION: 81 WK), Dose: 0, 0.1, 0.4% IN AIR 4 HR/D 5 D/WK FOR 78 WK (STUDY DURATION: 81 WK)) is reported as “inactive; negative”.

In the case of O=[N+]([O-])O, the carcinogen call (Species: RAT, Strain/Sex: F344/MALE,FEMALE, Route: ORAL, Dose: 2.5, 5% IN DRINKING WATER FOR 2 YR) is reported as “inactive; negative”.

COC(=O)c1c(Cl)c(Cl)c(C(=O)OC)c(Cl)c1Cl was tested, and the carcinogen call (Species: Mouse, Strain/Sex: CD-1/Female (60/group), Route: Oral, Dose: 0, 100, 1,000, 3,500, 7,500 ppm in diet for 2 yr, Dose: 0, 100, 1,000, 3,500, 7,500 ppm in diet for 2 yr, Tumor Site: Type of Lesion: Liver: Hepatocellular tumors (Significant only at highest dose)) was “active; positive (study details not given in source; purity 96.7%)”, the carcinogen call (Species: Mouse, Strain/Sex: CD-1/Male (60/group), Route: Oral, Dose: 0, 100, 1,000, 3,500, 7,500 ppm in diet for 2 yr, Dose: 0, 100, 1,000, 3,500, 7,500 ppm in diet for 2 yr) was “inactive; negative (study details not given in source; purity 96.7%)” and the carcinogen call (Species: Rat, Strain/Sex: Sprague-Dawley/Female (60/group), Route: Oral, Dose: 0, 1, 10, 50, 500, 1,000 mg/kg/day in diet for 2 yr, Dose: 0, 1, 10, 50, 500, 1,000 mg/kg/day in diet for 2 yr, Tumor Site: Type of Lesion: Thyroid: Follicular cell adenomas. Liver: Hepatocellular tumors) was “active; positive (as evaluated by ca dpr; study details not given in source; purity 97.7”. For the same compound, the carcinogen call (Species: Rat, Strain/Sex: Sprague-Dawley/Male (60/group), Route: Oral, Dose: 0, 1, 10, 50, 500, 1,000 mg/kg/day in diet for 2 yr, Dose: 0, 1, 10, 50, 500, 1,000 mg/kg/day in diet for 2 yr, Tumor Site: Type of Lesion: Thyroid: Follicular cell adenomas) was “active; positive (evaluated as adverse effect by ca dpr; study details not given in sour”.

In the case of O=NN(CCO)CCO, the carcinogen call (Species: HAMSTER, Route: SUBCUTANEOUS, Tumor Site: Type of Lesion: LIVER, INJECTION SITE, NASAL CAVITY, TRACHEA, Tumor Site: Type of Lesion: LIVER, INJECTION SITE, NASAL CAVITY, TRACHEA) is reported as “active; positive”, the carcinogen call (Species: HAMSTER, Strain/Sex: SYRIAN/FEMALE, Route: SUBCUTANEOUS, Dose: 0, 250, 500, 1000 MG/KG IN SALINE 1/WK FOR DURATION OF STUDY (STUDY DURATION: 41-59 WK), Dose: 0, 250, 500, 1000 MG/KG IN SALINE 1/WK FOR DURATION OF STUDY (STUDY DURATION: 41-59 WK), Tumor Site: Type of Lesion: NASAL CAVITY: ADENOCARCINOMA, TRACHEA: PAPILLARY POLYP, LARYNX: PAPILLARY POLYP, Tumor Site: Type of Lesion: NASAL CAVITY: ADENOCARCINOMA, TRACHEA: PAPILLARY POLYP, LARYNX: PAPILLARY POLYP) is reported as “active; positive” and the carcinogen call (Species: HAMSTER, Strain/Sex: SYRIAN/MALE, Route: SUBCUTANEOUS, Dose: 0, 250, 500, 1000 MG/KG IN SALINE 1/WK FOR DURATION OF STUDY (STUDY DURATION: 45-54 WK), Dose: 0, 250, 500, 1000 MG/KG IN SALINE 1/WK FOR DURATION OF STUDY (STUDY DURATION: 45-54 WK), Tumor Site: Type of Lesion: NASAL CAVITY: ADENOCARCINOMA, TRACHEA: PAPILLARY POLYP, LARYNX: PAPILLARY POLYP, Tumor Site: Type of Lesion: NASAL CAVITY: ADENOCARCINOMA, TRACHEA: PAPILLARY POLYP, LARYNX: PAPILLARY POLYP) is reported as “active; positive”. For the same compound, the carcinogen call (Species: MOUSE, Strain/Sex: STRAIN-A/FEMALE, Route: ORAL, Dose: 0, 0.2 UMOL/ML IN DRINKING WATER FOR 10 WK (TOTAL DOSE: 0, 55 UMOL) FOLLOWED BY TAP WATER FOR 20 WK (STUDY DURATION: 30, Tumor Site: Type of Lesion: LUNG: TUMORS) was “active; positive”, the carcinogen call (Species: RAT, Route: ORAL, Tumor Site: Type of Lesion: KIDNEY, LIVER) was “active; positive” and the carcinogen call (Species: RAT, Strain/Sex: F344/FEMALE, Route: ORAL, Dose: 0, 150 MG/L IN DRINKING WATER 5 D/WK FOR 50 WK (TOTAL DOSE: 0; 5.6 MMOL) (STUDY DURATION: 124 WK), Dose: 0, 150 MG/L IN DRINKING WATER 5 D/WK FOR 50 WK (TOTAL DOSE: 0; 5.6 MMOL) (STUDY DURATION: 124 WK), Tumor Site: Type of Lesion: LIVER: HEPATOCELLULAR TUMOR) was “active; positive”.

In the case of O=C1OCCO1, the carcinogen call (Species: RAT, Strain/Sex: STRAIN-CD/FEMALE, Route: ORAL, Dose: 25000, 50000 PPM IN DIET FOR 78 WK) is reported as “inactive; negative” and the carcinogen call (Species: RAT, Strain/Sex: STRAIN-CD/MALE, Route: ORAL, Dose: 25000, 44360 PPM IN DIET FOR 78 WK, TWA) is reported as “inactive; negative”.
